Source: patent US20080274892A1, “Novel Haloalkylsulfonanilide Derivative, Herbicide, and Method of Use Thereof” (priority 2005, published 2008)

What was measured:
bulrush [1] = assay: Test Example 2: herbicidal efficacy on rice paddy weeds post-emergence; format: in vivo, Scirpus juncoides; details: post-emergence, one leaf stage, 21 days after treatment
barnyard glass = assay: as above; format: in vivo, Echinochloa crus-galli; details: post-emergence, one leaf stage, 21 days after treatment
Summary of the method: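 Plastic pots of 75 cm^2 were filled with clay loam soil and sown with barnyard glass and bulrush seeds, then topped with 75 cm^3 soil containing false pimpernel seeds. The pots were flooded to 5 cm water depth and held in a hot house. Twenty-one days after treatment, herbicidal efficacy was graded against an untreated control.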

false pimpernel [2] = assay: Test Example 1: herbicidal efficacy on rice paddy weeds pre-emergence; format: in vivo, Lindernia pyxidaria; details: 21 days
[3] = test system: paddy rice plant (cultivar: Nihonbare); assay: Test Example 3: phytotoxicity test for transplanted paddy rice plant; format: in vivo; details: transplanted rice, 21 days after treatment
Summary of the method: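 Clay loam soil was placed in a 75 cm^2 plastic pot and flooded to a water depth of 5 cm. Two Nihonbare paddy rice plants at the two-leaf stage were transplanted 1 cm deep and grown in a hot house. After treatment, pots stayed in the hot house for 21 days, and phytotoxicity was then graded against an untreated control.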

false pimpernel [4] = assay: Test Example 2: herbicidal efficacy on rice paddy weeds post-emergence; format: in vivo, Lindernia pyxidaria; details: post-emergence, one leaf stage, 21 days after treatment
bulrush [5] = assay: Test Example 1: herbicidal efficacy on rice paddy weeds pre-emergence; format: in vivo, Scirpus juncoides; details: 21 days
[6] = dosage 1000 g/ha, treated 5 days after transplantation

Compound	Bulrush post (herbicidal efficacy grade) (bulrush [1]; dosage 300 g/ha)	Burnyard grass post (herbicidal efficacy grade) (barnyard glass; dosage 300 g/ha)	False pimpernel pre (herbicidal efficacy grade) (false pimpernel [2]; dosage 300 g/ha)	Phytotoxicity to paddy rice ([3]; dosage 300 g/ha)	False pimpernel post (herbicidal efficacy grade) (false pimpernel [4]; dosage 300 g/ha)	Bulrush pre (herbicidal efficacy grade) (bulrush [5]; dosage 300 g/ha)	Bulrush post (herbicidal efficacy grade) (bulrush [1]; dosage 1000 g/ha)	Burnyard grass post (herbicidal efficacy grade) (barnyard glass; dosage 1000 g/ha)	False pimpernel pre (herbicidal efficacy grade) (false pimpernel [2]; dosage 1000 g/ha)	Phytotoxicity to paddy rice [3, 6]	False pimpernel post (herbicidal efficacy grade) (false pimpernel [4]; dosage 1000 g/ha)	Bulrush pre (herbicidal efficacy grade) (bulrush [5]; dosage 1000 g/ha)
CC1(C2CCCCC2)CN(Cc2ccccc2NS(=O)(=O)C(F)(F)F)C(=O)O1 (stereo not drawn) [Compound 1-154]	4 (90%-100% of herbicidal efficacy or phytotoxicity)	1 (1%-39% of herbicidal efficacy or phytotoxicity)	4 (90%-100% of herbicidal efficacy or phytotoxicity)	1 (1%-39% of herbicidal efficacy or phytotoxicity)	4 (90%-100% of herbicidal efficacy or phytotoxicity)	4 (90%-100% of herbicidal efficacy or phytotoxicity)	–	–	–	–	–	–
CC1(COc2ccccc2)CN(Cc2ccccc2NS(=O)(=O)C(F)(F)F)C(=O)O1 (stereo not drawn) [Compound 1-155]	4 (90%-100% of herbicidal efficacy or phytotoxicity)	1 (1%-39% of herbicidal efficacy or phytotoxicity)	4 (90%-100% of herbicidal efficacy or phytotoxicity)	1 (1%-39% of herbicidal efficacy or phytotoxicity)	4 (90%-100% of herbicidal efficacy or phytotoxicity)	4 (90%-100% of herbicidal efficacy or phytotoxicity)	–	–	–	–	–	–
CC(C)COC(=O)N(c1ccccc1CN1CC(C)(COc2ccccc2)OC1=O)S(=O)(=O)C(F)(F)F (stereo not drawn) [Compound 1-158]	–	–	–	–	–	–	4 (90%-100% of herbicidal efficacy or phytotoxicity)	4 (90%-100% of herbicidal efficacy or phytotoxicity)	4 (90%-100% of herbicidal efficacy or phytotoxicity)	1 (1%-39% of herbicidal efficacy or phytotoxicity)	4 (90%-100% of herbicidal efficacy or phytotoxicity)	4 (90%-100% of herbicidal efficacy or phytotoxicity)
COC(=O)N(c1ccccc1CN1CC(C)(COc2ccccc2)OC1=O)S(=O)(=O)C(F)(F)F (stereo not drawn) [Compound 1-159]	–	–	–	–	–	–	4 (90%-100% of herbicidal efficacy or phytotoxicity)	4 (90%-100% of herbicidal efficacy or phytotoxicity)	4 (90%-100% of herbicidal efficacy or phytotoxicity)	1 (1%-39% of herbicidal efficacy or phytotoxicity)	4 (90%-100% of herbicidal efficacy or phytotoxicity)	4 (90%-100% of herbicidal efficacy or phytotoxicity)
CC1CCCC12CN(Cc1ccccc1NS(=O)(=O)C(F)(F)F)C(=O)O2 (stereo not drawn) [Compound 1-160]	4 (90%-100% of herbicidal efficacy or phytotoxicity)	4 (90%-100% of herbicidal efficacy or phytotoxicity)	4 (90%-100% of herbicidal efficacy or phytotoxicity)	1 (1%-39% of herbicidal efficacy or phytotoxicity)	4 (90%-100% of herbicidal efficacy or phytotoxicity)	4 (90%-100% of herbicidal efficacy or phytotoxicity)	–	–	–	–	–	–
CC(C)COC(=O)N(c1ccccc1CN1CC2(CCCC2C)OC1=O)S(=O)(=O)C(F)(F)F (stereo not drawn) [Compound 1-161]	–	–	–	–	–	–	4 (90%-100% of herbicidal efficacy or phytotoxicity)	4 (90%-100% of herbicidal efficacy or phytotoxicity)	4 (90%-100% of herbicidal efficacy or phytotoxicity)	1 (1%-39% of herbicidal efficacy or phytotoxicity)	4 (90%-100% of herbicidal efficacy or phytotoxicity)	4 (90%-100% of herbicidal efficacy or phytotoxicity)
COC(=O)N(c1ccccc1CN1CC2(CCCC2C)OC1=O)S(=O)(=O)C(F)(F)F (stereo not drawn) [Compound 1-162]	–	–	–	–	–	–	4 (90%-100% of herbicidal efficacy or phytotoxicity)	4 (90%-100% of herbicidal efficacy or phytotoxicity)	4 (90%-100% of herbicidal efficacy or phytotoxicity)	1 (1%-39% of herbicidal efficacy or phytotoxicity)	4 (90%-100% of herbicidal efficacy or phytotoxicity)	4 (90%-100% of herbicidal efficacy or phytotoxicity)
CC(C)COC(=O)N(c1ccccc1CN1CC(C)(COCc2ccccc2)OC1=O)S(=O)(=O)C(F)(F)F (stereo not drawn) [Compound 1-174]	–	–	–	–	–	–	4 (90%-100% of herbicidal efficacy or phytotoxicity)	4 (90%-100% of herbicidal efficacy or phytotoxicity)	4 (90%-100% of herbicidal efficacy or phytotoxicity)	1 (1%-39% of herbicidal efficacy or phytotoxicity)	4 (90%-100% of herbicidal efficacy or phytotoxicity)	4 (90%-100% of herbicidal efficacy or phytotoxicity)
COC(=O)N(c1ccccc1CN1CC(C)(COCc2ccccc2)OC1=O)S(=O)(=O)C(F)(F)F (stereo not drawn) [Compound 1-175]	–	–	–	–	–	–	4 (90%-100% of herbicidal efficacy or phytotoxicity)	4 (90%-100% of herbicidal efficacy or phytotoxicity)	4 (90%-100% of herbicidal efficacy or phytotoxicity)	1 (1%-39% of herbicidal efficacy or phytotoxicity)	4 (90%-100% of herbicidal efficacy or phytotoxicity)	4 (90%-100% of herbicidal efficacy or phytotoxicity)
CC(C)COC(=O)N(c1ccccc1CN1CC(C)(C2OC2(C)C)OC1=O)S(=O)(=O)C(F)(F)F (stereo not drawn) [Compound 1-177]	–	–	–	–	–	–	4 (90%-100% of herbicidal efficacy or phytotoxicity)	4 (90%-100% of herbicidal efficacy or phytotoxicity)	4 (90%-100% of herbicidal efficacy or phytotoxicity)	1 (1%-39% of herbicidal efficacy or phytotoxicity)	4 (90%-100% of herbicidal efficacy or phytotoxicity)	4 (90%-100% of herbicidal efficacy or phytotoxicity)
CCC1(C)CN(Cc2ccccc2NS(=O)(=O)C(F)(F)F)C(=S)O1 (stereo not drawn) [Compound 1-180]	–	–	–	–	–	–	4 (90%-100% of herbicidal efficacy or phytotoxicity)	4 (90%-100% of herbicidal efficacy or phytotoxicity)	4 (90%-100% of herbicidal efficacy or phytotoxicity)	2 (40%-69% of herbicidal efficacy or phytotoxicity)	4 (90%-100% of herbicidal efficacy or phytotoxicity)	4 (90%-100% of herbicidal efficacy or phytotoxicity)
CCC1(C)CN(Cc2ccccc2N(C(=O)OC)S(=O)(=O)C(F)(F)F)C(=S)O1 (stereo not drawn) [Compound 1-182]	–	–	–	–	–	–	4 (90%-100% of herbicidal efficacy or phytotoxicity)	4 (90%-100% of herbicidal efficacy or phytotoxicity)	4 (90%-100% of herbicidal efficacy or phytotoxicity)	1 (1%-39% of herbicidal efficacy or phytotoxicity)	4 (90%-100% of herbicidal efficacy or phytotoxicity)	4 (90%-100% of herbicidal efficacy or phytotoxicity)
CC(C)COC(=O)N(c1ccccc1CN1C(=O)SC(C)C1=O)S(=O)(=O)C(F)(F)F (stereo not drawn) [Compound 1-200]	–	–	–	–	–	–	3 (70%-89% of herbicidal efficacy or phytotoxicity)	1 (1%-39% of herbicidal efficacy or phytotoxicity)	2 (40%-69% of herbicidal efficacy or phytotoxicity)	0 (0% of herbicidal efficacy or phytotoxicity)	3 (70%-89% of herbicidal efficacy or phytotoxicity)	4 (90%-100% of herbicidal efficacy or phytotoxicity)
COC1N(Cc2ccccc2NS(=O)(=O)C(F)(F)F)C(=O)OC1(C)C (stereo not drawn) [Compound No. 1-195, 4-methoxy-5,5-dimethyl-3-[2-(trifluoromethanesulfonylamino)benzyl]oxazolidin-2-one]	4 (90%-100% of herbicidal efficacy or phytotoxicity)	1 (1%-39% of herbicidal efficacy or phytotoxicity)	1 (1%-39% of herbicidal efficacy or phytotoxicity)	2 (40%-69% of herbicidal efficacy or phytotoxicity)	3 (70%-89% of herbicidal efficacy or phytotoxicity)	4 (90%-100% of herbicidal efficacy or phytotoxicity)	–	–	–	–	–	–
